From patent US20160279079A1, “COMPOSITIONS AND METHODS FOR TREATING BONE DISEASES” (INDIANA UNIVERSITY RESEARCH AND TECHNOLOGY CORPORATION, priority 2013, published 2016)
Entries after “also recorded” stand apart in the source; their conditions may differ.

Columns and labels:
c-Fos = assay: Quantitative real-time PCR, c-Fos mRNA in RAW264.7 cells; type: cell-based, mouse
Experimental: METHOD EXAMPLE. Quantitative real-time PCR. Total RNA was extracted using an RNeasy Plus mini kit (Qiagen, Germantown, Md., USA). Reverse transcription was conducted with high capacity cDNA reverse transcription kits (Applied Biosystems, Carlsbad, Calif., USA), and quantitative real-time PCR was performed using ABI 7500 with Power SYBR green PCR master mix kits (Applied Biosystems). We evaluated mRNA levels of ATF4, Osteocalcin (OCN), NFATcl, c-Fos, tartrate-resistant acid phosphatase (TRAP), and osteoclast-associated receptor (OSCAR) with the PCR primers listed in Table 1. GAPDH was used for internal control. The relative mRNA abundance for the selected genes with respect to the level of GAPDH mRNA was expressed as a ratio of Streated/Scontrol, where Streated=mRNA level for the cells treated with chemical agents, and Scontrol=mRNA level for control cells.
METHOD EXAMPLE. Partial suppression of mRNA levels of NFATcl, c-Fos, TRAP, and OSCAR by salubrinal. […] On day 2, for instance, the RANKL-driven increase was 9.4±0.5 fold (NFATcl), 1.9±0.1 fold (c-fos), 165±4.2 fold (TRAP), and 467±22 fold (OSCAR). The reduction by 20 μM salubrinal was 46% (NFATcl), 32% (c-fos), 35% (TRAP), and 21% (OSCAR) (FIG. 5A).
(§1) METHOD EXAMPLE. Reduction of RANKL-induced NFATcl, c-Fos, TRAP, and OSCAR by guanabenz. […] The normalized level of “1” was defined as the level for the cells that were not treated with RANKL without administration of guanabenz.

NFATc1 = assay: Western immunoblotting, NFATc1 expression in RAW264.7 cells; type: cell-based, mouse; details: for expression of NFATc1: absence of RANKL administration
Experimental: METHOD EXAMPLE. Downregulation of NFATcl in RAW264.7 cells by salubrinal. NFATcl is a transcription factor critical for activating osteoclastogenesis. […] The RANKL-induced expression of NFATcl was reduced by administration of 5-20 μM salubrinal on both days, and the effect of salubrinal was dose dependent (FIG. 4).
as §1
(§2) METHOD EXAMPLE. Western Immunoblotting. Cells were lysed in a radioimmunoprecipitation assay (RIPA) buffer containing protease inhibitors (Santa Cruz Biotechnology, Santa Cruz, Calif., USA) and phosphatase inhibitors (Calbiochem, Billerica, Mass., USA). Isolated proteins were fractionated using 10-15% SDS gels and electro-transferred to Immobilon-P membranes (Millipore, Billerica, Mass., USA). The membrane was incubated for 1 h with primary antibodies followed by 45 min incubation with goat anti-rabbit or anti-mouse IgG conjugated with horseradish peroxidase (Cell Signaling, Danvers, Mass., USA). We used antibodies against ATF4, NFATcl (Santa Cruz), p-eIF2α (Thermo Scientific, Waltham, Mass., USA), eIF2α, caspase 3, cleaved caspase 3, p38 and p-p38 mitogen activated protein kinase (MAPK), extracellular signal-regulated kinase (ERK) and p-ERK, nuclear factor kappa B (NFκB) p65 and p-NFκB p65 (Cell Signaling), and β-actin (Sigma). Protein levels were assayed using a SuperSignal west femto maximum sensitivity substrate (Thermo Scientific), and signal intensities were quantified with a luminescent image analyzer (LAS-3000, Fuji Film, Tokyo, Japan).
(§3) METHOD EXAMPLE. Temporal profile of p-eIF2α and NFATcl. […] Note that the normalized level of “1” in FIG. 6C was defined as the level for the cells that were not treated with RANKL without administration of guanabenz.

p-ERK = assay: Western immunoblotting, p-ERK in RAW264.7 cells; type: cell-based, mouse; details: 20 μM salubrinal
Experimental: as §2, §3

p-p38 MAPK = assay: Western immunoblotting, p-p38 MAPK in RAW264.7 cells; type: cell-based, mouse; details: 20 μM salubrinal
Experimental: as §2, §3

p-NFκB = assay: Western immunoblotting, p-NFκB in RAW264.7 cells; type: cell-based, mouse; details: 20 μM salubrinal
Experimental: as §2, §3

[1] = test system: MC3T3 E1 mouse osteoblast-like cells (clone 14); assay: Cell mortality and proliferation of MC3T3 E1-14 cells; type: cell-based; details: 5-20 μM salubrinal
Experimental: METHOD EXAMPLE. Cell culture. MC3T3 E1 mouse osteoblast-like cells (clone 14—MC3T3 E1-14; and no clonal cells in supplementary figures), and RAW264.7 mouse pre-osteoclast (monocyte/macrophage) cells were cultured in αMEM containing 10% fetal bovine serum and antibiotics (50 units/ml penicillin, and 50 μg/ml streptomycin; Life Technologies, Grand Island, N.Y., USA). Cells were maintained at 37° C. and 5% CO2 in a humidified incubator. Cell mortality and live cell numbers were determined 24 h after the treatment with 20 ng/ml RANKL (PeproTech, Rocky Hills, N.C., USA) in response to 0.1-20 μM salubrinal or 1-20 μM guanabenz acetate (Tocris Bioscience, Ellisville, Mo., USA). Cells were stained with trypan blue and the numbers of live and dead cells were counted using a hemacytometer.
(§4) METHOD EXAMPLE. Enhanced mineralization of MC3T3 E1-14 cells by salubrinal. Prior to examining the effects of salubrinal on osteoclastogenesis, its effects on development of osteoblasts was tested, focusing on cell viability, phosphorylation of eIF2α (p-eIF2α), expression of ATF4 and osteocalcin, and matrix mineralization. […] The enhanced mineralization was also observed in non-clonal MC3T3 E1 cells (Supplementary FIG. S1).

cleaved caspase 3 = assay: Western immunoblotting, cleaved caspase 3 in MC3T3 E1-14 cells; type: cell-based, mouse; details: 10 μM salubrinal, 24 h
Experimental: as §2
METHOD EXAMPLE. Enhanced mineralization of MC3T3 E1-14 cells by salubrinal. […]

MC3T3 E1-14 cells = assay: Mineralization assay (Alizarin Red S staining); type: cell-based, mouse; details: 3-week incubation in an osteogenic medium
Experimental: METHOD EXAMPLE. Mineralization assay. Mineralization of extracellular matrix was assayed by Alizarin Red S staining. MC3T3-E1 cells were plated in 6-well plates. When cells were confluent, 50 μg/ml of ascorbic acid (Wako Chemicals, Richmond, Va., USA) and 5 mM β-glycerophosphate (Sigma) were added. The medium was changed every other day, and staining was conducted after 3 week. Cells were washed with PBS twice and fixed with 60% isopropanol for 1 min at room temperature, followed by rehydration with distilled water for 3 min at room temperature. They were stained with 1% Alizarin red S (Sigma) for 3 min and washed with distilled water.
as §4

Row | Compound | c-Fos mRNA level (c-Fos; 20 μM guanabenz, 2 days after RANKL) | temporal expression profile of NFATc1 (NFATc1; 20 μM guanabenz, with RANKL) | expression of NFATc1 (NFATc1) | induction of NFATc1 by RANKL (NFATc1; guanabenz dose response, 2 days after RANKL) | reduction of c-fos mRNA level (c-Fos; 20 μM salubrinal, day 2 after RANKL) | c-fos mRNA level (c-Fos; 0.1-1 μM salubrinal, with RANKL, except on day 4) | reduction of the level of NFATc1 (NFATc1; 20 μM salubrinal, 8 h, with RANKL) | reduction of the level of NFATc1 (NFATc1; 20 μM salubrinal, 24 h, with RANKL) | level of NFATc1 (NFATc1; 20 μM salubrinal, early period (2-4 h), with RANKL) | RANKL-induced expression of NFATc1 (NFATc1; 5-20 μM salubrinal, day 2 and day 4, dose dependent) | phosphorylation level of ERK (p-ERK) | phosphorylation level of p38 MAPK (p-p38 MAPK) | phosphorylation level of NFκB (p-NFκB) | cell mortality [1] | cell proliferation [1] | expression level of cleaved caspase 3 (cleaved caspase 3) | mineralization (Alizarin red S staining area) (MC3T3 E1-14 cells)
1 | N=C(N)N/N=C/c1c(Cl)cccc1Cl [guanabenz] | reduced | partially suppressed in 8 h | did not significantly alter | suppressed by guanabenz in a dose dependent manner |  |  |  |  |  |  |  |  |  |  |  |  | 
2 | O=C(/C=C/c1ccccc1)NC(NC(=S)Nc1cccc2cccnc12)C(Cl)(Cl)Cl (stereo not drawn) [salubrinal] |  |  | did not significantly alter |  | 32% | did not contribute to significant reduction | 48% | 44% | did not alter | reduced | did not significantly alter; also recorded: no detectable changes | did not significantly alter; also recorded: no detectable changes | did not significantly alter; also recorded: no detectable changes | did not increase cell mortality or inhibit cell proliferation | did not increase cell mortality or inhibit cell proliferation | did not elevate | enhanced mineralization of MC3T3 E1-14 cells in a dose dependent manner
